# ChEMBL document CHEMBL1148308, “Peptide-based inhibitors of the hepatitis C virus NS3 protease: structure-activity relationship at the C-terminal position” (J Med Chem, 2004)
# Where a SMILES comes first, the peptide text is derived from it. [ ]: non-standard residue; d: D form. Hyp(2-Ph-quinolin-4-yl) = O=C(O)[C@@H]1C[C@@H](Oc2cc(-c3ccccc3)nc3ccccc23)CN1; Ac3c(1R,2S-2-vinyl) = C=C[C@@H]1C[C@]1(N)C(=O)O; Chg = N[C@H](C(=O)O)C1CCCCC1
# Assay: Inhibitory activity against the hepatitis C virus NS3 protease was determined
# Set-up: species or system Hepacivirus hominis
row,IC50 [µM],SMILES
1,310,"CCC1(CC)C[C@]1(NC(=O)C1CC(OCc2cccc3ccccc23)CN1C(=O)[C@@H](NC(=O)[C@@H](NC(C)=O)C1CCCCC1)C(C)C)C(=O)O (single isomer, unassigned)"
2,640,CC(=O)N[C@H](C(=O)N[C@H](C(=O)N1C[C@H](OCc2cccc3ccccc23)C[C@H]1C(=O)N[C@@]1(C(=O)O)C[C@@H]1C(C)C)C(C)C)C1CCCCC1
3,32,"CC[C@H]1C[C@@]1(NC(=O)C1CC(OCc2cccc3ccccc23)CN1C(=O)[C@@H](NC(=O)[C@@H](NC(C)=O)C1CCCCC1)C(C)C)C(=O)O (single isomer, unassigned)"
4,22,"CC(=O)N[C@H](C(=O)N[C@H](C(=O)N1CC(OCc2cccc3ccccc23)CC1C(=O)N[C@]1(C(=O)O)C[C@H]1C)C(C)C)C1CCCCC1 (single isomer, unassigned)"
5,9.7,"C=C[C@@H]1C[C@]1(NC(=O)C1CC(OCc2ccccc2)CN1C(=O)[C@@H](NC(=O)[C@@H](NC(C)=O)C1CCCCC1)C(C)C)C(=O)O (single isomer, unassigned)"
6,41,"CCC[C@H]1C[C@@]1(NC(=O)C1CC(OCc2cccc3ccccc23)CN1C(=O)[C@@H](NC(=O)[C@@H](NC(C)=O)C1CCCCC1)C(C)C)C(=O)O (single isomer, unassigned)"
7,5.5,CC(=O)N[C@H](C(=O)N[C@H](C(=O)N1C[C@H](OCc2cccc3ccccc23)C[C@H]1C(=O)N[C@]1(C(=O)O)C[C@H]1C(C)C)C(C)C)C1CCCCC1
8,14,CC(=O)N[C@H](C(=O)N[C@H](C(=O)N1C[C@H](OCc2cccc3ccccc23)C[C@H]1C(=O)N[C@]1(C(=O)O)C[C@H]1Cc1ccccc1)C(C)C)C1CCCCC1
9,0.019,"C=C[C@@H]1C[C@]1(NC(=O)[C@@H]1C[C@@H](Oc2cc(-c3ccccc3)nc3ccccc23)CN1C(=O)[C@@H](NC(=O)[C@@H](NC(C)=O)C1CCCCC1)C(C)C)C(=O)O (Ac-[Chg]V[Hyp(2-Ph-quinolin-4-yl)][Ac3c(1R,2S-2-vinyl)]-OH)"
10,23,"CCC[C@H](NC(=O)C1CC(OCc2cccc3ccccc23)CN1C(=O)[C@@H](NC(=O)[C@@H](NC(C)=O)C1CCCCC1)C(C)C)C(=O)O (single isomer, unassigned)"
11,81,CC(=O)N[C@H](C(=O)N[C@H](C(=O)N1C[C@H](OCc2cccc3ccccc23)C[C@H]1C(=O)N[C@@]1(C(=O)O)C[C@@H]1Cc1ccccc1)C(C)C)C1CCCCC1

# Second part, the molecule before the results:
row,SMILES,IC50 [µM]
1,"COc1ccc2c(OC3CC(C(=O)NC4(C(=O)O)CC4)N(C(=O)[C@@H](NC(=O)[C@@H](NC(C)=O)C4CCCCC4)C(C)C)C3)ccnc2c1 (single isomer, unassigned)",0.85
2,"C=C[C@@H]1C[C@]1(NC(=O)C1CC(Oc2ccnc3cc(OC)ccc23)CN1C(=O)[C@@H](NC(=O)[C@@H](NC(C)=O)C1CCCCC1)C(C)C)C(=O)O (single isomer, unassigned)",0.029
3,"CC(=O)N[C@H](C(=O)N[C@H](C(=O)N1CC(Oc2cc(-c3ccccc3)nc3ccccc23)CC1C(=O)NC1(C(=O)O)CC1)C(C)C)C1CCCCC1 (single isomer, unassigned)",0.55
4,"CC(=O)N[C@H](C(=O)N[C@H](C(=O)N1CC(OCc2cccc3ccccc23)CC1C(=O)NC1(C(=O)O)CC1)C(C)C)C1CCCCC1 (single isomer, unassigned)",14
5,"C=C[C@@H]1C[C@]1(NC(=O)C1CC(OCc2cccc3ccccc23)CN1C(=O)[C@@H](NC(=O)[C@@H](NC(C)=O)C1CCCCC1)C(C)C)C(=O)O (single isomer, unassigned)",0.63
6,"CC(=O)N[C@H](C(=O)N[C@H](C(=O)N1CC(OCc2cccc3ccccc23)CC1C(=O)N[C@@]1(C(=O)O)C[C@@H]1C)C(C)C)C1CCCCC1 (single isomer, unassigned)",180
7,"CC(=O)N[C@H](C(=O)N[C@H](C(=O)N1CC(OCc2ccccc2)CC1C(=O)NC1(C(=O)O)CC1)C(C)C)C1CCCCC1 (single isomer, unassigned)",330
8,CC(=O)N[C@H](C(=O)N[C@H](C(=O)N1C[C@H](OCc2cccc3ccccc23)C[C@H]1C(=O)N[C@]1(C(=O)O)C[C@H]1CCc1ccccc1)C(C)C)C1CCCCC1,22
9,"CC(=O)N[C@H](C(=O)N[C@H](C(=O)N1CC(OCc2ccccc2)CC1C(=O)N[C@@H](CS)C(=O)O)C(C)C)C1CCCCC1 (single isomer, unassigned)",140
10,"CCC[C@@H]1C[C@]1(NC(=O)C1CC(OCc2cccc3ccccc23)CN1C(=O)[C@@H](NC(=O)[C@@H](NC(C)=O)C1CCCCC1)C(C)C)C(=O)O (single isomer, unassigned)",5.5
11,CC(=O)N[C@H](C(=O)N[C@H](C(=O)N1C[C@H](OCc2cccc3ccccc23)C[C@H]1C(=O)N[C@@]1(C(=O)O)C[C@@H]1CCc1ccccc1)C(C)C)C1CCCCC1,90
12,"CC[C@@H]1C[C@]1(NC(=O)C1CC(OCc2cccc3ccccc23)CN1C(=O)[C@@H](NC(=O)[C@@H](NC(C)=O)C1CCCCC1)C(C)C)C(=O)O (single isomer, unassigned)",4.8
13,"CCC[C@H](NC(=O)C1CC(OCc2ccccc2)CN1C(=O)[C@@H](NC(=O)[C@@H](NC(C)=O)C1CCCCC1)C(C)C)C(=O)O (single isomer, unassigned)",530
